A word on the viability: it is a read-out of living cells in per cent, often relative to untreated cells.

Assay type in all cases: functional, Homo sapiens
What all share (conditions): Homo sapiens, read-out: Cell Viability; for viability at 10 µM: Concentration 10 uM; for viability at 1 µM: Concentration 1 uM

Experiment [1] deals with Colon cancer organoid. In words: Targeting of F14 CAF-induced therapy resistance in O14 CRC organoid-stroma co-culture. Cell viability is reported without Gefitinib.
In experiment [2] the test system is Colon cancer organoid. Nature of the experiment: Targeting of F14 CAF-induced therapy resistance in O23 CRC organoid-stroma co-culture. Cell viability is reported with Gefitinib.
Experiment [3] has as its system Colon cancer organoid. In words: Targeting of F14 CAF-induced therapy resistance in O23 CRC organoid-stroma co-culture. Cell viability is reported with SN-38.
Experiment [4] has as its system Colon cancer organoid. Nature of the experiment: Targeting of F14 CAF-induced therapy resistance in O14 CRC organoid-stroma co-culture. Cell viability is reported with Gefitinib.
The test system of experiment [5] is Colon cancer organoid. In words: Targeting of F14 CAF-induced therapy resistance in O23 CRC organoid-stroma co-culture. Cell viability is reported without Gefitinib.

Regarding `C[C@@H]1CC(=O)Nc2cccc(-c3ccc4c(c3)c(-c3cnn(C)c3)nn4C)c2N1`, the viability at 10 µM in the experiment on Colon cancer organoid [1] amounted to 43.6%; in the experiment on Colon cancer organoid [2], 69%; in the experiment with Colon cancer organoid [3], 70.4%; in the experiment on Colon cancer organoid [4] it was 21.1%; with Colon cancer organoid [5] it was 115%.

Take `CNC(=O)c1ccccc1Nc1cc(Nc2ccc(N3CCOCC3)cc2OC)ncc1C(F)(F)F` [VS-4718]: the viability at 10 µM worked out at 25.2% in the experiment on Colon cancer organoid [1]; 4.5% in the experiment with Colon cancer organoid [2]; 19.3% in the experiment on Colon cancer organoid [3]; 5.44% in the experiment with Colon cancer organoid [4]; 22.4% with Colon cancer organoid [5].

Consider `CN1CCN(Cc2cc(NC(=O)c3ccc4c(c3)CN(c3ccccc3)CC4)cc(C(F)(F)F)c2)CC1`, for which the viability at 10 µM came to 115% in the experiment with Colon cancer organoid [1]; 64.5% in the experiment on Colon cancer organoid [2]; 63.3% in the experiment with Colon cancer organoid [3]; 50.8% in the experiment with Colon cancer organoid [4]; 112% in the experiment on Colon cancer organoid [5].

As for `c1ccc([C@@H]2C[C@H]2NC2CCNCC2)cc1`, the viability at 10 µM in the experiment on Colon cancer organoid [1] turned out to be 114%; with Colon cancer organoid [2] it was 68%; in the experiment with Colon cancer organoid [3], 68.3%; in the experiment on Colon cancer organoid [4] it was 58.2%; in the experiment with Colon cancer organoid [5] it was 79.5%.

For the compound `NS(=O)(=O)c1cc(NC(=O)Cc2ccccc2)ccc1Oc1cccc(Cl)c1` [BAY-1797], the viability at 10 µM with Colon cancer organoid [1] was found to be 124%; with Colon cancer organoid [2] it was 48.6%; in the experiment on Colon cancer organoid [3] it was 60.6%; with Colon cancer organoid [4], 51.7%; in the experiment on Colon cancer organoid [5] it was 114%.

Turning to `Cc1sc2c(c1C)C(c1ccc(Cl)cc1)=N[C@H](CC(=O)OC(C)(C)C)c1nnc(C)n1-2`, the viability at 10 µM with Colon cancer organoid [1] was determined as 103%; with Colon cancer organoid [2], 72%; in the experiment on Colon cancer organoid [3], 73.3%; in the experiment on Colon cancer organoid [4], 55.8%; in the experiment on Colon cancer organoid [5] it was 130%.

For `Cc1c(NC(=O)c2cc(C(N)=O)nc3cc(F)ccc23)c(C(F)(F)F)nn1Cc1ccc(C(C)(C)C)cc1` [BAY-588], the viability at 1 µM in the experiment on Colon cancer organoid [1] stood at 45.5%; with Colon cancer organoid [2] it was 43.1%; with Colon cancer organoid [3], 104%; with Colon cancer organoid [4] it was 31.3%; in the experiment with Colon cancer organoid [5], 111%.

For the compound `Cc1cc(CN)cc(C)c1-c1ncn(C)c1-c1cncn1C`, the viability at 10 µM with Colon cancer organoid [1] was 112%; in the experiment on Colon cancer organoid [2], 73.9%; with Colon cancer organoid [3], 87.1%; with Colon cancer organoid [4], 80.2%; in the experiment on Colon cancer organoid [5] it was 112%.

Regarding `Cc1c[nH]c2nccc(Oc3c(F)cc(Nc4cc(Cl)nc(N)n4)cc3F)c12` [BAY-549], the viability at 1 µM with Colon cancer organoid [1] turned out to be 96.4%; in the experiment with Colon cancer organoid [2], 62.9%; in the experiment on Colon cancer organoid [3] it was 74.7%; in the experiment with Colon cancer organoid [4], 30.6%; in the experiment on Colon cancer organoid [5] it was 124%.

For `CCOC(=O)CCNc1cc(N2CCc3ccccc3CC2)nc(-c2ccccn2)n1`, the viability at 10 µM with Colon cancer organoid [1] is 93.3%; with Colon cancer organoid [2] it was 59.2%; in the experiment on Colon cancer organoid [3], 121%; with Colon cancer organoid [4] it was 59.5%; with Colon cancer organoid [5] it was 155%.

Regarding `COc1cc(N(C)c2ccnc3ccc(C(F)(F)F)cc23)cc(OC)c1OC`, the viability at 10 µM with Colon cancer organoid [1] is 109%; in the experiment on Colon cancer organoid [2] it was 69.7%; with Colon cancer organoid [3], 64.7%; in the experiment on Colon cancer organoid [4] it was 50.1%; in the experiment with Colon cancer organoid [5], 135%.

Regarding `C[C@H]1CCCN1Cc1nc2cc(NC(=O)c3ccc4cnccc4c3)ccc2[nH]1`, the viability at 10 µM in the experiment with Colon cancer organoid [1] was 53.7%; with Colon cancer organoid [2], 26.6%; in the experiment on Colon cancer organoid [3] it was 43.3%; in the experiment on Colon cancer organoid [4], 37.4%; with Colon cancer organoid [5] it was 68.1%.

With `Cc1cc2c(-c3ccco3)cnc(N[C@@H]3CCN(C)C[C@H]3C(=O)NC3CCCCC3)c2[nH]c1=O` [GSK789], the viability at 10 µM came out at 84.8% in the experiment with Colon cancer organoid [1]; 29.8% with Colon cancer organoid [2]; 38.8% with Colon cancer organoid [3]; 26.6% with Colon cancer organoid [4]; 72.5% in the experiment with Colon cancer organoid [5].

Values taken from ChEMBL document CHEMBL5608113, “Targeting of CAF-induced therapy resistance in CRC organoid-stroma co-cultures” (2024).
